Reference: EP2147919A1, “Heterocyclic substituted amides, method for their manufacture and their use as herbicides” (Bayer CropScience Aktiengesellschaft, priority 2008, dated 2010)

Experiments:
ALOMY = assay: Herbicidal action pre-emergence (greenhouse pot test, visual rating); type: in vivo, Alopecurus myosuroides; details: Vorauflauf, 1280 g/ha, visual rating after 3 weeks vs untreated controls
Text: (§1) Samen von mono- bzw. dikotylen Unkraut- bzw. Kulturpflanzen werden in Holzfasertöpfen in sandiger Lehmerde ausgelegt und mit Erde abgedeckt. Die in Form von benetzbaren Pulvern (WP) oder als Emulsionskonzentrate (EC) formulierten erfindungsgemäßen Verbindungen werden dann als wäßrige Suspension bzw. Emulsion mit einer Wasseraufwandmenge von umgerechnet 600 bis 800 l/ha unter Zusatz von 0,2% Netzmittel auf die Oberfläche der Abdeckerde appliziert.
(§2) Nach der Behandlung werden die Töpfe im Gewächshaus aufgestellt und unter guten Wachstumsbedingungen für die Testpflanzen gehalten. Die visuelle Bonitur der Schäden an den Versuchspflanzen erfolgt nach einer Versuchszeit von 3 Wochen im Vergleich zu unbehandelten Kontrollen (herbizide Wirkung in Prozent (%): 100% Wirkung = Pflanzen sind abgestorben, 0 % Wirkung = wie Kontrollpflanzen).

VERPE [1] = assay: as above; type: in vivo, Veronica persica; details: Vorauflauf, 1280 g/ha, visual rating after 3 weeks vs untreated controls
Text: as §1, §2

ABUTH [2] = assay: as above; type: in vivo, Abutilon theophrasti; details: Vorauflauf, 1280 g/ha, visual rating after 3 weeks vs untreated controls
Text: as §1, §2

Schadpflanzen = assay: Herbicidal action pre-emergence, summary over the weed spectrum; type: in vivo; details: Vorauflaufverfahren, Aufwandmenge von 1.28 kg und weniger Aktivsubstanz pro Hektar
Text: as §1, §2

AMARE [3] = assay: Herbicidal action pre-emergence (greenhouse pot test, visual rating); type: in vivo, Amaranthus retroflexus; details: Vorauflauf, 1280 g/ha, visual rating after 3 weeks vs untreated controls
Text: as §1, §2

ECHCG = assay: as above; type: in vivo, Echinochloa crus-galli; details: Vorauflauf, 1280 g/ha, visual rating after 3 weeks vs untreated controls
Text: as §1, §2

STEME [4] = assay: as above; type: in vivo, Stellaria media; details: Vorauflauf, 1280 g/ha, visual rating after 3 weeks vs untreated controls
Text: as §1, §2

MATIN [5] = assay: as above; type: in vivo, Matricaria inodora; details: Vorauflauf, 1280 g/ha, visual rating after 3 weeks vs untreated controls
Text: as §1, §2

POLCO = assay: as above; type: in vivo, Polygonum convolvolus; details: Vorauflauf, 1280 g/ha, visual rating after 3 weeks vs untreated controls
Text: as §1, §2

VIOTR [6] = assay: as above; type: in vivo, Viola tricolor; details: Vorauflauf, 1280 g/ha, visual rating after 3 weeks vs untreated controls
Text: as §1, §2

LOLMU = assay: as above; type: in vivo, Lolium multiflorum; details: Vorauflauf, 1280 g/ha, visual rating after 3 weeks vs untreated controls
Text: as §1, §2

SETVI = assay: as above; type: in vivo, Setaria viridis; details: Vorauflauf, 1280 g/ha, visual rating after 3 weeks vs untreated controls
Text: as §1, §2

Log P = type: physicochemical
ABUTH [7] = assay: Herbicidal action post-emergence (greenhouse pot test, visual rating); type: in vivo, Abutilon theophrasti; details: Nachauflauf, 1280 g/ha, visual rating after ca. 3 weeks vs untreated controls
Text: (§3) Samen von mono- bzw. dikotylen Unkraut- bzw. Kulturpflanzen werden in Holzfasertöpfen in sandigem Lehmboden ausgelegt, mit Erde abgedeckt und im Gewächshaus unter guten Wachstumsbedingungen angezogen. 2 bis 3 Wochen nach der Aussaat werden die Versuchspflanzen im Einblattstadium behandelt. Die in Form von benetzbaren Pulvern (WP) oder als Emulsionskonzentrate (EC) formulierten erfindungsgemäßen Verbindungen werden dann als wäßrige Suspension bzw. Emulsion mit einer Wasseraufwandmenge von umgerechnet 600 bis 800 l/ha unter Zusatz von 0,2% Netzmittel auf die grünen Pflanzenteile gesprüht. Nach ca. 3 Wochen Standzeit der Versuchspflanzen im Gewächshaus unter optimalen Wachstumsbedingungen wird die Wirkung der Präparate visuell im Vergleich zu unbehandelten Kontrollen bonitiert (herbizide Wirkung in Prozent (%): 100% Wirkung = Pflanzen sind abgestorben, 0 % Wirkung = wie Kontrollpflanzen).

PHBPU = assay: as above; type: in vivo, Pharbitis purpurea; details: Nachauflauf, 1280 g/ha, visual rating after ca. 3 weeks vs untreated controls
Text: as §3

AMARE [8] = assay: as above; type: in vivo, Amaranthus retroflexus; details: Nachauflauf, 1280 g/ha, visual rating after ca. 3 weeks vs untreated controls
Text: as §3

VERPE [9] = assay: as above; type: in vivo, Veronica persica; details: Nachauflauf, 1280 g/ha, visual rating after ca. 3 weeks vs untreated controls
Text: as §3

VIOTR [10] = assay: as above; type: in vivo, Viola tricolor; details: Nachauflauf, 1280 g/ha, visual rating after ca. 3 weeks vs untreated controls
Text: as §3

STEME [11] = assay: as above; type: in vivo, Stellaria media; details: Nachauflauf, 1280 g/ha, visual rating after ca. 3 weeks vs untreated controls
Text: as §3

MATIN [12] = assay: as above; type: in vivo, Matricaria inodora; details: Nachauflauf, 1280 g/ha, visual rating after ca. 3 weeks vs untreated controls
Text: as §3

Cc1cc(OC(C)C)c(C(=O)NC(c2ccc(Cl)cc2)c2ccon2)c(Cl)n1 (racemic) [Beispiel 152, 2-Chlor-N-[(4-chlorphenyl)(isoxazol-3-yl)methyl]-4-isopropoxy-6-methylnicotinamid]
herbizide Wirkung ALOMY (ALOMY): 80%
herbizide Wirkung VERPE (VERPE [1]): 100%
herbizide Wirkung ABUTH (ABUTH [2]): 100%
herbizide Wirkung gegen Schadpflanzen (Schadpflanzen): sehr gute herbizide Wirkung
herbizide Wirkung AMARE (AMARE [3]): 100%
herbizide Wirkung ECHCG (ECHCG): 90%
herbizide Wirkung STEME (STEME [4]): 90%
herbizide Wirkung MATIN (MATIN [5]): 100%
herbizide Wirkung POLCO (POLCO): 100%
herbizide Wirkung VIOTR (VIOTR [6]): 100%
herbizide Wirkung LOLMU (LOLMU): 90%
herbizide Wirkung SETVI (SETVI): 100%

COc1ccc(C(NC(=O)c2cnn(C)c2Cl)c2ccon2)c(F)c1 (racemic) [Beispiel 260, 5-Chlor-N-[(2-fluor-4-methoxyphenyl)(isoxazol-3-yl)methyl]-1-methyl-1 H-pyrazol-4-carboxamid]
logP (Log P): 1.8

COc1cccc(C(NC(=O)c2nsc(Cl)c2Cl)c2ccon2)c1 (racemic) [Beispiel 306, 4,5-Dichlor-N-[(3-methoxyphenyl)(isoxazol-3-yl)methyl]isothiazol-3-carboxamid]
logP (Log P): 3.44

COc1ccc(C(NC(=O)c2c(OC(C)C)cc(C)nc2Br)c2ccon2)c(F)c1 (stereo not drawn) [Beispiel 3, 2-Brom-N-[(2-fluor-4-methoxyphenyl)(isoxazol-3-yl)methyl]-4-isopropoxy-6-methylnicotinamid]
herbizide Wirkung gegen Schadpflanzen (Schadpflanzen): sehr gute herbizide Wirkung

CCCOc1cc(C)nc(Br)c1C(=O)NC(c1ccc(Cl)cc1)c1ccon1 (stereo not drawn) [Beispiel 35]
herbizide Wirkung gegen Schadpflanzen (Schadpflanzen): sehr gute herbizide Wirkung
logP (Log P): 2.63

Cc1ncc(C(=O)NC(c2ccc(Cl)cc2)c2ccon2)c(C)c1Br (stereo not drawn) [Beispiel 131]
logP (Log P): 2.63

COc1ccc(C(NC(=O)c2cnc(C)c(Br)c2C)c2ccon2)c(F)c1 (stereo not drawn) [Beispiel 132]
logP (Log P): 2.28

COc1cccc(C(NC(=O)c2c(OC(C)C)cc(C)nc2Br)c2ccon2)c1 (stereo not drawn) [Beispiel 158]
logP (Log P): 2.16

CCCOc1cc(C)nc(Br)c1C(=O)NC(c1ccon1)c1ccc(Cl)cc1Cl (stereo not drawn) [Beispiel 160]
herbizide Wirkung VERPE (VERPE [1]): 100%
herbizide Wirkung ABUTH (ABUTH [2]): 100%
herbizide Wirkung AMARE (AMARE [3]): 100%
herbizide Wirkung STEME (STEME [4]): 100%
herbizide Wirkung MATIN (MATIN [5]): 100%
herbizide Wirkung POLCO (POLCO): 100%
herbizide Wirkung VIOTR (VIOTR [6]): 100%
herbizide Wirkung SETVI (SETVI): 90%

Cc1cc(Cl)c(C(=O)NC(c2ccc(F)c(F)c2)c2ccon2)c(OC(C)C)n1 (stereo not drawn) [Beispiel 164]
herbizide Wirkung ABUTH (ABUTH [7]): 90%
herbizide Wirkung PHBPU (PHBPU): 80%
herbizide Wirkung VERPE (VERPE [1]): 100%
herbizide Wirkung AMARE (AMARE [8]): 100%
herbizide Wirkung AMARE (AMARE [3]): 100%
herbizide Wirkung VERPE (VERPE [9]): 80%
herbizide Wirkung VIOTR (VIOTR [10]): 80%
herbizide Wirkung STEME (STEME [4]): 90%
herbizide Wirkung POLCO (POLCO): 100%
herbizide Wirkung VIOTR (VIOTR [6]): 100%

COc1ccc(C(NC(=O)c2c(OC(C)C)cc(C)nc2Cl)c2ccon2)c(F)c1 (stereo not drawn) [Beispiel 187]
logP (Log P): 2.18

COc1ccncc1C(=O)NC(c1ccc(Cl)cc1)c1ccon1 (stereo not drawn) [Beispiel 188]
logP (Log P): 1.18

COc1ccc(C(NC(=O)c2cnccc2OC)c2ccon2)c(F)c1 (stereo not drawn) [Beispiel 189]
logP (Log P): 1

COc1ccncc1C(=O)NC(c1ccc(F)c(F)c1)c1ccon1 (stereo not drawn) [Beispiel 190]
logP (Log P): 1.07

O=C(NC(c1ccon1)c1ccc(Cl)cc1Cl)c1ccc(Cl)nc1 (stereo not drawn) [Beispiel 201]
herbizide Wirkung VERPE (VERPE [1]): 100%
herbizide Wirkung STEME (STEME [4]): 100%
herbizide Wirkung VIOTR (VIOTR [6]): 100%

Cc1ccc(C(=O)NC(c2ccc(Cl)cc2)c2ccon2)cn1 (stereo not drawn) [Beispiel 209]
herbizide Wirkung ABUTH (ABUTH [7]): 80%
herbizide Wirkung STEME (STEME [11]): 100%
herbizide Wirkung VIOTR (VIOTR [10]): 80%

COc1ccc(C(NC(=O)c2ccc(C)nc2)c2ccon2)c(F)c1 (stereo not drawn) [Beispiel 212]
herbizide Wirkung ABUTH (ABUTH [7]): 80%
herbizide Wirkung AMARE (AMARE [8]): 80%
herbizide Wirkung STEME (STEME [11]): 100%
herbizide Wirkung VERPE (VERPE [9]): 80%

CCCOc1cc(C)nc(Cl)c1C(=O)NC(c1cnc(Cl)c(Cl)c1)c1ccon1 (stereo not drawn) [Beispiel 221]
logP (Log P): 2.45

Cc1cc(OC(C)C)c(C(=O)NC(c2cnc(Cl)c(Cl)c2)c2ccon2)c(Cl)n1 (stereo not drawn) [Beispiel 222]
logP (Log P): 2.37

CCCOc1cc(C)nc(Br)c1C(=O)NC(c1cnc(Cl)c(Cl)c1)c1ccon1 (stereo not drawn) [Beispiel 223]
logP (Log P): 2.6

Cc1cc(OC(C)C)c(C(=O)NC(c2cnc(Cl)c(Cl)c2)c2ccon2)c(Br)n1 (stereo not drawn) [Beispiel 224]
logP (Log P): 2.51

Cn1nc(C(F)(F)F)c(C(=O)NC(c2ccc(Cl)cc2)c2ccon2)c1Cl (stereo not drawn) [Beispiel 262]
herbizide Wirkung VERPE (VERPE [1]): 100%
herbizide Wirkung AMARE (AMARE [3]): 100%
herbizide Wirkung STEME (STEME [4]): 100%
herbizide Wirkung MATIN (MATIN [5]): 90%
herbizide Wirkung VIOTR (VIOTR [6]): 100%

Cc1nn(C)cc1C(=O)NC(c1ccc(Cl)cc1)c1ccon1 (stereo not drawn) [Beispiel 265]
herbizide Wirkung ABUTH (ABUTH [7]): 100%
herbizide Wirkung VERPE (VERPE [1]): 100%
herbizide Wirkung ABUTH (ABUTH [2]): 90%
herbizide Wirkung AMARE (AMARE [8]): 100%
herbizide Wirkung STEME (STEME [11]): 100%
herbizide Wirkung AMARE (AMARE [3]): 100%
herbizide Wirkung MATIN (MATIN [12]): 80%
herbizide Wirkung VERPE (VERPE [9]): 100%
herbizide Wirkung VIOTR (VIOTR [10]): 100%
herbizide Wirkung STEME (STEME [4]): 100%
herbizide Wirkung MATIN (MATIN [5]): 100%
herbizide Wirkung VIOTR (VIOTR [6]): 100%

COc1ccc(C(NC(=O)c2cn(C)nc2C)c2ccon2)c(F)c1 (stereo not drawn) [Beispiel 266]
herbizide Wirkung STEME (STEME [11]): 100%
herbizide Wirkung VERPE (VERPE [9]): 90%
herbizide Wirkung VIOTR (VIOTR [10]): 80%

O=C(NC(c1ccc(Cl)cc1)c1ccon1)c1ncn(Cc2ccccc2)c1[N+](=O)[O-] (stereo not drawn) [Beispiel 289]
logP (Log P): 2.63

COc1c(C(=O)NC(c2ccc(Cl)cc2)c2ccon2)csc1Br (stereo not drawn) [Beispiel 290]
logP (Log P): 3.64

Cc1cc(C(=O)NC(c2ccc(Cl)cc2)c2ccon2)cs1 (stereo not drawn) [Beispiel 295]
herbizide Wirkung ABUTH (ABUTH [7]): 80%
herbizide Wirkung STEME (STEME [11]): 100%
herbizide Wirkung MATIN (MATIN [12]): 80%
herbizide Wirkung VIOTR (VIOTR [10]): 90%

COc1ccc(C(NC(=S)c2cnn(C)c2Cl)c2ccon2)c(F)c1 (stereo not drawn) [Beispiel 312, 5-Chlor-N-[(2-fluor-4-methoxyphenyl)(isoxazol-3-yl)methyl]-1-methyl-1 H-pyrazol-4-carbothioamid]
logP (Log P): 1.76

COc1c(C(=S)NC(c2ccc(Cl)cc2)c2ccon2)csc1Br (stereo not drawn) [Beispiel 313, 5-Brom-N-[(4-chlorphenyl)(isoxazol-3-yl)methyl]-4-methoxythiophen-3-carbothioamid]
logP (Log P): 4.51
